From patent US20100285145A1, “GPR 119 MODULATORS” (PFIZER INC, priority 2009, published 2010)
Several values for one entry are separate records, joined by “and”; a condition that tells them apart may be missing. Equal values may be shown once.

Legend:
[1] = target: T1, human GPR119 (Homo sapiens, UniProt Q8TDV5); assay: GPR119 radioligand binding assay ([3H]-Compound A or B, membranes of HEK 293FT cells expressing hGPR119); design: host or cells: HEK293-CRE beta-lactamase; settings: calculated from IC50 with Cheng-Prusoff; each line a separate determination
T1 sequence (Q8TDV5 1-335): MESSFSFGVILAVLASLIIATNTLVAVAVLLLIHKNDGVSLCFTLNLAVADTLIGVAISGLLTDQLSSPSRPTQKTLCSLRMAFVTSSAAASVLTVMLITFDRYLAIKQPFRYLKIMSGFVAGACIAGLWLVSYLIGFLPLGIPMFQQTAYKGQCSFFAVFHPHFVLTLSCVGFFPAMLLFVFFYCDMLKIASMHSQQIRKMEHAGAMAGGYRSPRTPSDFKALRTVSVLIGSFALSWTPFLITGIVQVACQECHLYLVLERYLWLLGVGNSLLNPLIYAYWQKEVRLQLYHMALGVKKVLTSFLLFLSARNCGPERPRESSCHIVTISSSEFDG
Experimental: HEK 293FT cells (Invitrogen, Carlsbad, Calif.) were grown in a shake flask in 293Freestyle medium (Invitrogen) supplemented with 50 microg/mL neomycin and 10 mM HEPES (37C, 8% carbon dioxide, shaking). The cells were centrifuged gently (approximately 500×g, 10 minutes) and the pellet resuspended in a mixture of Dulbecco's PBS (minus Mg++/−Ca++) supplemented with 18% fetal bovine serum (Sigma Aldrich) and P1 virus such that the multiplicity of infection (MOI) was 10 and the final cell density was 1.3×10^6/mL (total volume 2.5 liters). The cells were transferred to a 5 liter Wave Bioreactor Wavebag (Wave Technologies, Mass.) and incubated for 4 hours at 27 degrees Celsius (17 rocks/min, 7 degrees platform angle); at the end of the incubation period, an equal volume (2.5 liters) of 293Freestyle medium supplemented with 30 mM sodium butyrate (Sigma Aldrich) was added (final concentration=15 mM), and the cells were grown for 20 hours (37 degrees Celsius, 8% CO2 [0.2 liters/min}, 25 rocks/minute, 7 degrees platform angle). Cells were harvested via centrifugation (3,000×g, 10 minutes), washed once on DPBS (minus Ca++/Mg++), resuspended in 0.25M sucrose, 25 mM HEPES, 0.5 mM EDTA, pH 7.4 and frozen at −80 degrees Celsius.
The frozen cells were thawed on ice and centrifuged at 700×g (1400 rpm) for 10 minutes at 4 degrees Celsius. The cell pellet was resuspended in 20 mL phosphate-buffered saline, and centrifuged at 1400 rpm for 10 minutes. The cell pellet was then resuspended in homogenization buffer (10 mM HEPES (Gibco #15630), pH 7.5, 1 mM EDTA (BioSolutions, #BIO260-15), 1 mM EGTA (Sigma, #E-4378), 0.01 mg/mL benzamidine (Sigma #B 6506), 0.01 mg/mL bacitracin (Sigma #B 0125), 0.005 mg/mL leupeptin (Sigma #L 8511), 0.005 mg/mL aprotinin (Sigma #A 1153)) and incubated on ice for 10 minutes. Cells were then lysed with 15 gentle strokes of a tight-fitting glass Dounce homogenizer. The homogenate was centrifuged at 1000×g (2200 rpm) for 10 minutes at 4 degrees Celsius. The supernatant was transferred into fresh centrifuge tubes on ice. The cell pellet was resuspended in homogenization buffer, and centrifuged again at 1000×g (2200 rpm) for 10 minutes at 4 degrees Celsius after which the supernatant was removed and the pellet resuspended in homogenization buffer. This process was repeated a third time, after which the supernatants were combined, Benzonase (Novagen # 71206) and MgCl2 (Fluka #63020) were added to final concentrations of 1 U/mL and 6 mM, respectively, and incubated on ice for one hour. The solution was then centrifuged at 25,000×g (15000 rpm) for 20 minutes at 4 degrees Celsius, the supernatant was discarded, and the pellet was resuspended in fresh homogenization buffer (minus Benzonase and MgCl2). After repeating the 25,000×g centrifugation step, the final membrane pellet was resuspended in homogenization buffer and frozen at −80 degrees Celsius. The protein concentration was determined using the Pierce BCA protein assay kit (Pierce reagents A #23223 and B #23224).
Test compounds were serially diluted in 100% DMSO (J. T. Baker #922401). 2 microL of each dilution was added to appropriate wells of a 96-well plate (each concentration in triplicate). Unlabeled Compound A (or Compound B), at a final concentration of 10 microM, was used to determine non-specific binding. [^3H]-Compound A (or [^3H]-Compound B) was diluted in binding buffer (50 mM Tris-HCl, pH 7.5, (Sigma #T7443), 10 mM MgCl2 (Fluka 63020), 1 mM EDTA (BioSolutions #BIO260-15), 0.15% bovine serum albumin (Sigma #A7511), 0.01 mg/mL benzamidine (Sigma #B 6506), 0.01 mg/mL bacitracin (Sigma #B 0125), 0.005 mg/mL leupeptin (Sigma #L 8511), 0.005 mg/mL aprotinin (Sigma #A 1153)) to a concentration of 60 nM, and 100 microL added to all wells of 96-well plate (Nalge Nunc # 267245). […]

[2] = target: T1, human GPR119; assay: cAMP HTRF functional assay (hGPR119 HEK-CRE beta-lactamase cells); type: cell-based; design: host or cells: HEK293-CRE beta-lactamase; settings: for Emax: read-out: Intrinsic Activity (Human cAMP)
Experimental: GPR119 agonist activity was also determined with a cell-based assay utilizing an HTRF (Homogeneous Time-Resolved Fluorescence) cAMP detection kit (cAMP dynamic 2 Assay Kit; Cis Bio cat #62AM4PEC) that measures cAMP levels in the cell. The method is a competitive immunoassay between native cAMP produced by the cells and the cAMP labeled with the dye d2. The tracer binding is visualized by a Mab anti-cAMP labeled with Cryptate. The specific signal (i.e. energy transfer) is inversely proportional to the concentration of cAMP in either standard or sample.
Specifically, hGPR119 HEK-CRE beta-lactamase cells (Invitrogen 2.5×10^7/mL; the same cell line used in the beta-lactamase assay described above) are removed from cryopreservation and diluted in growth medium (Dulbecco's modified Eagle medium high glucose (DMEM; Gibco Cat # 11995-065), 1% charcoal dextran treated fetal bovine serum (CD serum; HyClone Cat # SH30068.03), 1×MEM Nonessential amino acids (Gibco Cat # 15630-080) and 25 mM HEPES pH 7.0 (Gibco Cat # 15630-080)). The cell concentration was adjusted to 1.5×10^5 cells/mL and 30 mLs of this suspension was added to a T-175 flask and incubated at 37 degrees Celsius in a humidified environment in 5% carbon dioxide. After 16 hours (overnight), the cells were removed from the T-175 flask (by rapping the side of the flask), centrifuged at 800×g and then re-suspended in assay medium (1×HBSS+CaCl2+MgCl2 (Gibco Cat # 14025-092) and 25 mM HEPES pH 7.0 (Gibco Cat # 15630-080)). The cell concentration was adjusted to 6.25×10^5 cells/mL with assay medium and 8 μl of this cell suspension (5000 cells) was added to each well of a white Greiner 384-well, low-volume assay plate (VWR cat #82051-458).
Varying concentrations of each compound to be tested were diluted in assay buffer containing 3-isobutyl-1-methylxanthin (IBMX; Sigma cat #15879) and added to the assay plate wells in a volume of 2 microL (final IBMX concentration was 400 microM and final DMSO concentration was 0.58%). Following 30 minutes incubation at room temperature, 5 microL of labeled d2 cAMP and 5 microL of anti-cAMP antibody (both diluted 1:20 in cell lysis buffer; as described in the manufacturers assay protocol) were added to each well of the assay plate. The plates were then incubated at room temperature and after 60 minutes, changes in the HTRF signal were read with an Envision 2104 multilabel plate reader using excitation of 330 nm and emissions of 615 and 665 nm. Raw data were converted to nM cAMP by interpolation from a cAMP standard curve (as described in the manufacturer's assay protocol) and EC50 determinations were made from an agonist-response curves analyzed with a curve fitting program using a 4-parameter logistic dose response equation.

[3] = target: T1, human GPR119; assay: β-Arrestin PathHunter assay (U2OS hGPR119 β-arrestin cells); type: cell-based; settings: U2OS, percent of maximal activity relative to standard GPR119 agonist at 10 micromolar; read-out: Intrinsic Activity (Human B-arrestin)
Experimental: GPR119 agonist activity was also determined with a cell-based assay utilizing DiscoverX PathHunter β-arrestin cell assay technology and their U2OS hGPR119 β-arrestin cell line (DiscoverX Cat # 93-0356C3). In this assay, agonist activation is determined by measuring agonist-induced interaction of β-arrestin with activated GPR119. A small, 42 amino acid enzyme fragment, called ProLink was appended to the C-terminus of GPR119. Arrestin was fused to the larger enzyme fragment, termed EA (Enzyme Acceptor). Activation of GPR119 stimulates binding of arrestin and forces the complementation of the two enzyme fragments, resulting in formation of a functional β-galactosidase enzyme capable of hydrolyzing substrate and generating a chemiluminescent signal.
Specifically, U2OS hGPR119 β-arrestin cells (DiscoverX 1×10^7/mL) are removed from cryopreservation and diluted in growth medium (Minimum essential medium (MEM; Gibco Cat # 11095-080), 10% heat inactivated fetal bovine serum (HIFBS; Sigma Cat # F4135-100), […] sodium pyruvate (Sigma Cat # S8636), 500 microg/mL G418 (Sigma Cat # G8168) and 250 microg/mL Hygromycin B (Invitrogen Cat # 10687-010). The cell concentration was adjusted to 1.66×10^5 cells/mL and 30 mLs of this suspension was added to a T-175 flask and incubated at 37 degrees Celsius in a humidified environment in 5% carbon dioxide. After 24 hours, the cells were removed from the T-175 flask with enzyme-free cell dissociation buffer (Gibco cat #13151-014), centrifuged at 800×g and then re-suspended in plating medium (Opti-MEM I (Invitrogen/BRL Cat # 31985-070) and 2% charcoal dextran treated fetal bovine serum (CD serum; HyClone Cat # SH30068.03).
The cell concentration was adjusted to 2.5×10^5 cells/mL with plating medium and 20 microliters of this cell suspension (5000 cells) was added to each well of a white Greiner 384-well low volume assay plate (VWR cat #82051-458) and the plates were incubated at 37 degrees Celsius in a humidified environment in 5% carbon dioxide.
After 16 hours (overnight) the assay plates were removed from the incubator and varying concentrations of each compound to be tested (diluted in assay buffer (1×HBSS+CaCl2+MgCl2 (Gibco Cat # 14025-092), 20 mM HEPES pH 7.0 (Gibco Cat # 15630-080) and 0.1% BSA (Sigma Cat # A9576)) were added to the assay plate wells in a volume of 5 microliters (final DMSO concentration was 0.5%). After a 90 minute incubation at 37 degrees Celsius in a humidified environment in 5% carbon dioxide, 12 microliters of Galacton Star β-galactosidase substrate (PathHunter Detection Kit (DiscoveRx Cat # 93-0001); prepared as described in the manufacturers assay protocol) was added to each well of the assay plate. The plates were incubated at room temperature and after 60 minutes, changes in the luminescence were read with an Envision 2104 multilabel plate reader at 0.1 seconds per well. EC50 determinations were made from an agonist-response curves analyzed with a curve fitting program using a 4-parameter logistic dose response equation.

[4] = HTRF cAMP, 30 min, 400 microM IBMX, each line a separate determination
[5] = percent of maximal activity relative to standard GPR119 agonist at 10 micromolar
[6] = marked **: curve was extrapolated to 100%

Ki [1]	EC50 [2, 4]	Intrinsic Activity (Human cAMP) [2, 5]	Emax [2, 5] [%]	EC50 ([2]; curve was extrapolated to 100% to calculate an EC50)	Intrinsic Activity (Human cAMP) [2, 6]	Emax [2, 6] [%]	Emax [3] [%]	SMILES
> 8150 nM	549 nM and 520 nM	28%	28	–	–	–	–	Cc1c(O[C@@H]2CCN(C(=O)OC(C)(C)C)C[C@@H]2F)ncnc1N1CCc2nnccc21 [Example 30, tert-Butyl (3S,4R)-4-{[6-(6,7-dihydro-5H-pyrrolo[3,2-c]pyridazin-5-yl)-5-methylpyrimidin-4-yl]oxy}-3-fluoropiperidine-1-carboxylate]
26 nM and 25.6 nM	107 nM and 87.8 nM	45.2%	49.8	–	–	–	–	Cc1c(O[C@H]2[C@@H]3COC[C@H]2CN(C(=O)OC(C)(C)C)C3)ncnc1N1CCc2ncccc21 [Example 21, tert-Butyl (9-anti)-9-{[6-(2,3-dihydro-1H-pyrrolo[3,2-b]pyridin-1-yl)-5-methylpyrimidin-4-yl]oxy}-3-oxa-7-azabicyclo[3.3]nonane-7-carboxylate]
618 nM	–	–	–	4820 nM and 5890 nM and 6100 nM	100** %	100	–	Cc1c(O[C@@H]2CCN(C(=O)OC3(C)CC3)C[C@@H]2F)ncnc1N1CCc2nnccc21 [Example 31, 1-Methylcyclopropyl (3S,4R)-4-{[6-(6,7-dihydro-5H-pyrrolo[3,2-c]pyridazin-5-yl)-5-methylpyrimidin-4-yl]oxy}-3-fluoropiperidine-1-carboxylate]
1710 nM	493 nM and 765 nM and 1050 nM	91.6% and 98%	81.5	–	–	–	–	Cc1c(OC2CCN(C(=O)OC3(C)CC3)CC2F)ncnc1N1CCc2cc(C(N)=O)ccc21 (racemic) [Example 20, 1-Methylcyclopropyl 4-{[6-(5-carbamoyl-2,3-dihydro-1H-indol-1-yl)-5-methylpyrimidin-4-yl]oxy}-3-fluoropiperidine-1-carboxylate (racemic)]
–	–	37% and 36%	41.9	–	–	–	32.1	Cc1c(O[C@@H]2[C@@H]3COC[C@H]2CN(C(=O)OC2(C)CC2)C3)ncnc1N1CCc2ncccc21 [Example 28, 1-Methylcyclopropyl (9-syn)-9-{[6-(2,3-dihydro-1H-pyrrolo[3,2-b]pyridin-1-yl)-5-methylpyrimidin-4-yl]oxy}-3-oxa-7-azabicyclo[3.3.1]nonane-7-carboxylate]
